Laboratory results taken from article PMC4558628 (International Journal of Clinical Pharmacology and …, 2014).
Where “and” joins values, the source holds several entries; their conditions need not be identical. Identical values can stand only once. Like-named read-outs stand apart in the source and are kept apart here.

Key:
[1] = Study 1: effect of steady-state rifampin on single-dose pharmacokinetics of canagliflozin, M7 and M5; conditions: day 10 (with canagliflozin, fasted) vs day 9 (alone, fed)
Text: (§2) For each study, the participants were enrolled at different individual study centers in the US. Study 1 (rifampin study, NCT01395927) was a single-center, open-label, fixed-sequence study to evaluate the effects of steady-state rifampin on the single-dose PK of canagliflozin. The study consisted of a screening period of 20 days (from day –21 to ‒2), a 14-day open-label period (from day –1 to 13), followed by an end-of-study period (5 – 7 days) consisting of follow-up assessments. Participants received canagliflozin 300 mg (tablet) q.d. on day 1 and rifampin 600 mg q.d. (as two 300 mg capsules) on days 4 – 9. On day 10, canagliflozin (300 mg) plus rifampin (600 mg) was administered, followed by rifampin alone (600 mg) administration on days 11 – 12. The study drugs were administered under a fasted state.
(§3) Study 1: Venous blood (4 mL each) samples for the determination of canagliflozin, M7, and M5 plasma concentrations were collected pre-dose, and up to 72 hours post-dose (at 0.5, 1, 1.5, 2, 3, 4, 6, 8, 10, 12, 16, 24, 48, and 72 hours) on days 1 and 10. Urine samples for the determination of canagliflozin, M7, and M5 in urine were collected over the intervals of 0 – 4 hours, 4 – 12 hours, 12 – 24 hours, 24 – 48 hours, and 48 – 72 hours on days 1 and 10. Venous blood samples (2 mL each) for the determination of rifampin plasma concentrations were collected 2 hours after rifampin administration on days 9 and 10.
(§4) Blood samples for canagliflozin, M7 and M5, rifampin and probenecid were centrifuged (10 minutes at 1,300 rpm), and the obtained plasma was stored at or below –20 °C. […] Urine samples were collected in polyethylene containers for the PK evaluation of canagliflozin, M7, and M5. Two aliquots (3 mL in study 1 and 2 mL in study 2) of urine sample were transferred into polyethylene tubes and were stored at or below –20 °C.
(§5) The EDTA plasma samples were analyzed to determine the concentrations of canagliflozin with a validated [29, 30] liquid chromatography coupled to tandem mass spectrometry/mass spectrometry (LC-MS/MS) method (Frontage, Shanghai, China). A ^13C6 analogue of canagliflozin was used as internal standard (IS). Briefly, the sample was processed using a liquid-liquid extraction with tert-butyl methyl ether. The LC phase used a 5 cm × 4.6 mm column packed with XBridge C18 (Waters, Milford, MA, USA) with a mobile phase of ammonium acetate 0.01M (30%) and methanol (70%), and a flow rate of 1.2 mL/min. Quantification was achieved by MS/MS detection with an API4000, equipped with TurboIonSpray (TIS) interface (AB Sciex, Framingham, MA, USA), in the positive ion multiple reaction monitoring (MRM) mode. Canagliflozin and IS were monitored at mass transitions m/z 462.1 → 267.0 and m/z 468.1 → 273.0, respectively. The quantitation range was 5.0 – 10,000 ng/mL.
(§6) Plasma (validated) and urine (qualified) concentrations of M7 and M5 were also determined using ^13C6-canagliflozin as IS at Frontage Laboratories (Shanghai) Co., Ltd. Samples underwent protein precipitation, with acetonitrile. The LC-MS/MS quantitation was done with the same equipment as for canagliflozin. The LC phase used a 5 cm × 4.6 mm column packed with XBridge C18 with a mobile phase of ammonium acetate 0.01M (pH 4) and methanol at ratio 40/60 (v/v) at a flow rate of 1.2 mL/min. After 3.5 minutes, the composition was changed to 98% methanol for 1 minute to flush the column. Using positive ion MRM on an API4000, equipped with TIS, both metabolites were measured at mass transition m/z 638.2 → 427. The quantitation range was 5.0 – 10,000 ng/mL for both metabolites in plasma, and 100 – 100,000 ng/mL in urine.
(§7) Pharmacokinetic analyses of plasma and urine concentrations was done by non-compartmental method using validated WinNonlin® software Version 5.2.1 (Pharsight Corporation, Mountain View, CA, USA).

[2] = set-up: method as in PMID 21189429, PMID 6643696; conditions: under fed conditions; cited from earlier work
[3] = Study 1 safety: treatment-emergent adverse events; conditions: drug administered alone; n = 14
Text: as §2
(§8) Safety and tolerability were monitored throughout all three studies by evaluation of the incidence and the type of treatment-emergent adverse events (TEAEs), and change from baseline in: clinical laboratory tests (including hematology, serum chemistry, urinalysis, and urine uric acid analysis (study 2 only)), physical examination of all body systems except genitalia and breast (by a study physician), body weight, height, and BMI, vital signs (including systolic and diastolic blood pressure, heart rate, and body temperature), and 12-lead electrocardiographys (ECGs) (including cardiac rhythm, waveform morphology, and interval duration).
(§9) Results of the clinical laboratory parameters and vital signs were summarized using descriptive statistics.

[4] = human, in vivo
Protocol: (§10) The study consisted of a 3-week screening period (from day –22 to –2), an 11 day open-label period (from day –1 to 10), followed by an end-of-study period consisting of 2 follow-up assessments occurring from 7 to 10 days and again from 14 to 18 days after the last dose of the study drug administration. Canagliflozin 300 mg (tablet) q.d. was administered on days 1 through 8 under fasted state.
Study 3: Venous blood (4 mL each) samples for the determination of canagliflozin plasma concentration were collected at pre-dose on days 2, 3, 4, 5, and 6, and at pre-dose and up to 24 hours post-dose (at 0.5, 1, 1.5, 2, 3, 4, 5, 6, 10, 12, 16, and 24 hours) on days 7 and 8.
as §4, §5
Pharmacokinetic analyses of plasma and urine concentrations was done by non-compartmental method using validated WinNonlin® software Version 5.2.1 (Pharsight Corporation, Mountain View, CA, USA). […] The assessed pharmacokinetic parameters of canagliflozin, M7, and M5 in study 2, and of canagliflozin in study 3 were: Cmax during a dosing interval at steady state (Cmax.ss), observed plasma concentration before dosing or at the end of a dosing interval (Ctrough; only for canagliflozin), tmax during a dosing interval at steady state (tmax.ss), and AUC during a dosing interval at steady state (AUCτ.ss). Additionally, M/P ratio (corrected for the differences in molecular weights) for Cmax.ss, AUCτ.ss, Ae during a collection interval (Aet1-t2), %Ae dose, and CLR were calculated for study 2.
A mixed-effects model was fitted to the log-transformed data of AUC or Cmax as dependent variables, treatment (with or without coadministration of the other drug) as a fixed effect, and participant as a random effect. The estimated least-square means and intra-participant variability from the mixed-effect model was used to construct 90% confidence interval (CI) for the difference in means of AUC or Cmax on the log-scale between the two treatments. The limits of the CIs were retransformed using antilogarithms to obtain the 90% CI for the ratio of the geometric mean AUC or Cmax.

[5] = Study 2 safety: treatment-emergent adverse events; format: in vivo, human
Protocol: (§1) The study consisted of a 19-day screening period (from day –21 to –3), a 20 day open-label period (from day –2 to 18), followed by an end-of-study period (7 – 10 days). […] Participants received study drugs under fasted state on days 14 and 17. On all other study days, participants received a standardized meal 1 hour after the study drug administration. Diet was standardized in order to stabilize uric acid levels, and participants were advised not to consume highly purine-enriched foods.

P-glycoprotein (P-gp) = test system: P-glycoprotein (P-gp); set-up: method as in earlier work; conditions: in vitro experiments; cited from earlier work
OAT3 = conditions: no reference given; cited from earlier work
[6] = Study 3 safety: treatment-emergent adverse events; format: in vivo, human
Protocol: as §10, §8

[7] = set-up: method as in PMID 23670707; conditions: cited from earlier work
OAT1 = conditions: in vitro studies; no reference given; cited from earlier work
[8] = Study 2: effect of multiple-dose probenecid on steady-state pharmacokinetics of canagliflozin, M7 and M5; format: in vivo, human; conditions: for trough plasma concentration, mean (SD): canagliflozin 300 mg q.d.; for % Ae (dose): cumulative amount excreted into the urine: corrected for molecular weight when necessary; for tmax.ss: median (range)
Protocol: as §1

P-gp = test system: P-gp; set-up: method as in unpublished data; conditions: MDR1-expressing MDCK cells; ref unpublished data; cited from earlier work
OATP1B1 = conditions: in vitro studies; no reference given; cited from earlier work
[9] = set-up: method as in PMID 22226086, PMID 22492586; conditions: canagliflozin 300 mg b.i.d., cited from earlier work
[10] = in vivo
Text: as §2, §3, §4, §5, §6, §7

[11] = test system: multidrug resistance protein 2 (MRP2); set-up: method as in earlier work; conditions: in vitro experiments; cited from earlier work
[12] = in vivo; remark: listed apart in the source
Text: as §2, §8, §9

[13] = Safety and tolerability across the three studies; format: in vivo, human
Text: as §8, §9

[14] = canagliflozin and probenecid coadministration, 1/12
[15] = canagliflozin + probenecid (test), geometric mean, n = 11
[16] = canagliflozin + probenecid vs canagliflozin alone
[17] = canagliflozin + probenecid, arithmetic mean (SD)
[18] = canagliflozin alone (reference), geometric mean, n = 11
[19] = canagliflozin alone, arithmetic mean (SD)
[20] = probenecid coadministration vs canagliflozin alone

CO[C@H]1/C=C/O[C@@]2(C)Oc3c(C)c(O)c4c(O)c(c(/C=N/N5CCN(C)CC5)c(O)c4c3C2=O)NC(=O)/C(C)=C\C=C\[C@H](C)[C@H](O)[C@@H](C)[C@@H](O)[C@@H](C)[C@H](OC(C)=O)[C@@H]1C [rifampin]
increase in plasma rifampin concentration at 2 hours [1]: 24%
reduction of rifampin absorption [2]: 30%
participants with TEAEs [3]: 50%

Canagliflozin
AUCτ.ss [4]: 22,243.50 ng×h/mL
Cmax.ss [4]: 2,864.03 ng/mL
tmax.ss [4]: 2.00 (1.00 – 3.00) h
AUCτ.ss ([4]; 300 mg): 22,158 (4203) ng×h/mL
Cmax.ss ([4]; 300 mg): 2,887 (735) ng/mL
participants with headache ([5]; canagliflozin alone, 2/14): 14.3%
participants with ≥ 1 TEAE ([5]; canagliflozin alone, 4/14): 28.6%
participants with abdominal discomfort [5, 14]: 8.3%
participants with diarrhea [5, 14]: 8.3%
participants with headache [5, 14]: 8.3%
participants with muscle twitching [5, 14]: 8.3%
participants with musculoskeletal pain [5, 14]: 8.3%
participants with pruritis [5, 14]: 8.3%
participants with urethral pain [5, 14]: 8.3%
participants with ≥ 1 TEAE ([5]; canagliflozin and probenecid coadministration, 5/12): 41.7%
substrate of P-glycoprotein (P-gp) (P-glycoprotein (P-gp)): substrate
substrate of OAT3 (OAT3): not a substrate
participants with diarrhea ([6]; canagliflozin alone, 2/18): 11.1%
participants with oropharyngeal pain ([6]; canagliflozin alone, 2/18): 11.1%
participants reporting TEAEs ([6]; canagliflozin alone, 6/18): 33.3%
participants with flushing ([6]; canagliflozin and cyclosporine A coadministration, 15/18): 83.3%
participants reporting TEAEs ([6]; canagliflozin and cyclosporine A coadministration, 17/18): 94.4%
canagliflozin dose excreted in urine as unchanged canagliflozin [7]: less than 1%
substrate of OAT1 (OAT1): not a substrate
AUC∞.ss ([8]; canagliflozin 300 mg q.d. + probenecid 500 mg b.i.d. (day 17), arithmetic mean (SD), n = 12): 26,225 (5261) ng×h/mL
AUC∞.ss ([8]; canagliflozin 300 mg q.d. alone (day 14), arithmetic mean (SD), n = 12): 21,861 (4290) ng×h/mL
trough plasma concentration, mean (SD) ([8]; day 13): 381 (110) ng/mL
trough plasma concentration, mean (SD) ([8]; day 14): 366 (117) ng/mL
trough plasma concentration, mean (SD) ([8]; day 15): 358 (110) ng/mL
AUC∞.ss [8, 15]: 26,011.71 ng×h/mL
Cmax.ss [8, 15]: 3,008.66 ng/mL
AUCτ.ss, estimated ratio (test/reference) of geometric means (90% CI) [8, 16]: 120.74 (116.37; 125.27) %
AUC∞.ss, estimated ratio (test/reference) of geometric means (90% CI) [8, 16]: 120.74 (116.37; 125.27) %
Cmax.ss, estimated ratio (test/reference) of geometric means (90% CI) [8, 16]: 113.37 (100.37; 128.06) %
CLR (renal clearance, Ae24/AUC24) [8, 17]: 0.0569 (0.00944) L/h
% Ae (dose): cumulative amount excreted into the urine [8, 17]: 0.495 (0.136) % dose
tmax.ss ([8]; canagliflozin + probenecid): 1.67 (1.42 – 5.92) h
AUC∞.ss [8, 18]: 21,543.95 ng×h/mL
Cmax.ss [8, 18]: 2,653.85 ng/mL
CLR (renal clearance, Ae24/AUC24) [8, 19]: 0.0868 (0.0297) L/h
% Ae (dose): cumulative amount excreted into the urine [8, 19]: 0.609 (0.217) % dose
tmax.ss ([8]; canagliflozin alone): 1.92 (1.42– 3.92) h
Cmax.ss ([8]; plasma, canagliflozin 300 mg q.d. + probenecid 500 mg b.i.d. (day 17), arithmetic mean (SD), n = 12): 3,105 (680) ng/mL
Cmax.ss ([8]; plasma, canagliflozin 300 mg q.d. alone (day 14), arithmetic mean (SD), n = 12): 2,699 (814) ng/mL
decrease in mean CLR [8, 20]: ~ 34%
increase in AUCτ.ss (systemic exposure) [8, 20]: 21%
increase in Cmax.ss [8, 20]: 13% and ~ 13%
P-gp substrate status (P-gp): P-gp substrate
basal-to-apical/apical-to-basal efflux ratio (P-gp): 2.0
substrate of OATP1B1 (OATP1B1): not a substrate
tolerability ([9]; 2-week multiple-dose study and 12-week dose-ranging study in T2DM): well-tolerated
plasma AUCτ.ss higher than with the 300 mg q.d. dose [9]: 93%
plasma Cmax.ss higher than with the 300 mg q.d. dose [9]: 32%
AUC∞ ([10]; human): 20,938.95 ng×h/mL
CLR (renal clearance, Ae0–72/AUC0–72h) ([10]; human): 0.0849 (0.0318) L/h
Cmax ([10]; human): 2,358.29 ng/mL
t1/2 ([10]; human): 12.9 (2.42) h
tmax ([10]; human): 2.00 (1.00 – 4.00) h
AUC∞ ([10]; human, 300 mg): 21,695 (6151) ng×h/mL
Cmax ([10]; human, 300 mg): 2,474 (805) ng/mL
Ae (% dose): cumulative amount excreted into the urine [10]: 0.578 (0.180) % dose
substrate of MRP2 [11]: substrate
participants with TEAEs [12]: 21.4%
participants with abdominal discomfort [12]: 7.1%
participants with polyuria [12]: 7.1%
participants with thirst [12]: 7.1%
changes in clinical laboratory values, vital signs, physical examinations, or ECGs ([13]; any of the three studies): No consistent, clinically relevant changes
deaths, serious TEAEs, or discontinuations due to TEAEs ([13]; any of the three studies): No deaths, serious TEAEs, or discontinuations due to TEAEs
tolerability ([13]; canagliflozin 300 mg coadministered with rifampin, probenecid, and cyclosporine A, healthy participants): generally well-tolerated
